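Protocol summary: plate cells (96-well), add compound at 5 concentrations, incubate 48 h, interpolate endpoints linearly. At the TGI there is no net growth.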 Where a SMILES comes first, the peptide text is derived from it. [ ]: non-standard residue; d: D form. The star is where a group is joined. ξ: configuration not given here. NMeF = CN[C@@H](Cc1ccccc1)C(=O)O; ξNMeV = CNC(C(=O)O)C(C)C; Boc = CC(C)(C)OC(=O)*; OBn = c1ccc(CO*)cc1
Columns and labels:
Experiment in all cases: inhibition of tumour cell growth, NCI panel, 48 h
KM20L2 colon = test system: KM20L2 colon
HOP-18 NSCLC = test system: HOP-18 NSCLC
DLD-1 colon = test system: DLD-1 colon
LXFL 529 NSCLC = test system: LXFL 529 NSCLC
SNB-78 CNS = test system: SNB-78 CNS
XF 498 CNS = test system: XF 498 CNS
DMS 114 small cell lung = test system: DMS 114 small cell lung
DMS 273 small cell lung = test system: DMS 273 small cell lung
RXF-631 renal = test system: RXF-631 renal

CCOc1ccc2c(ccc(/C=C\c3cc(C)c4cccnc4c3O)[n+]2C)c1
TGI (KM20L2 colon): 37 µM
TGI (HOP-18 NSCLC): 7.49 µM
TGI (DLD-1 colon): 4.32 µM
TGI (LXFL 529 NSCLC): 14 µM

CC(C)C(C(=O)N1CCC[C@@H]1C(=O)OCc1ccccc1)N(C)C(=O)C(C(C)C)N(C)C(=O)[C@H](Cc1ccccc1)N(C)C(=O)[C@H](NC(=O)OC(C)(C)C)C(C)C (stereo not given in full) (Boc-[dV][NMeF][ξNMeV][ξNMeV][dP]-OBn)
TGI (KM20L2 colon): > 100 µM
TGI (HOP-18 NSCLC): > 100 µM
TGI (SNB-78 CNS): > 100 µM
TGI (XF 498 CNS): > 100 µM
TGI (DLD-1 colon): > 100 µM
TGI (DMS 114 small cell lung): > 100 µM
TGI (LXFL 529 NSCLC): > 100 µM
TGI (DMS 273 small cell lung): > 100 µM

CC(C)C(=O)/C=C/c1ccc(Cl)cc1
TGI (KM20L2 colon): > 100 µM
TGI (HOP-18 NSCLC): 13.8 µM
TGI (XF 498 CNS): 20.5 µM
TGI (DLD-1 colon): 32.2 µM
TGI (DMS 114 small cell lung): 39.8 µM
TGI (LXFL 529 NSCLC): 30.4 µM
TGI (DMS 273 small cell lung): 14 µM

COc1cc(C(C)c2cc3c(cc2OCCCCOc2cc4c(cc2C(C)c2cc(OC)c(OC)c(OC)c2)OCO4)OCO3)cc(OC)c1OC (stereo not given)
TGI (KM20L2 colon): > 100 µM
TGI (RXF-631 renal): > 100 µM
TGI (SNB-78 CNS): 64 µM
TGI (XF 498 CNS): 89.2 µM
TGI (DLD-1 colon): > 100 µM
TGI (DMS 114 small cell lung): 45.1 µM
TGI (LXFL 529 NSCLC): > 100 µM

NCC(NC(=O)OCc1ccccc1)C(=O)O (stereo not given)
TGI (KM20L2 colon): > 50 µM
TGI (HOP-18 NSCLC): > 50 µM
TGI (SNB-78 CNS): > 50 µM
TGI (DLD-1 colon): > 50 µM
TGI (DMS 114 small cell lung): > 50 µM
TGI (LXFL 529 NSCLC): > 50 µM
TGI (DMS 273 small cell lung): > 50 µM

O=C1C2CCC(C2)C12CC1(c3ccccc3)C(=O)c3ccccc3N1O2 (stereo not given)
TGI (KM20L2 colon): > 100 µM
TGI (HOP-18 NSCLC): > 100 µM
TGI (SNB-78 CNS): > 100 µM
TGI (XF 498 CNS): > 100 µM
TGI (DLD-1 colon): > 100 µM
TGI (DMS 114 small cell lung): > 100 µM
TGI (LXFL 529 NSCLC): > 100 µM
TGI (DMS 273 small cell lung): > 100 µM

N#CC(C#N)=C(N)/C(C#N)=C/c1cc(O)c(O)c(Br)c1
TGI (KM20L2 colon): > 100 µM
TGI (SNB-78 CNS): > 100 µM
TGI (XF 498 CNS): > 100 µM
TGI (DLD-1 colon): > 100 µM
TGI (DMS 114 small cell lung): 88.5 µM
TGI (LXFL 529 NSCLC): > 100 µM
TGI (DMS 273 small cell lung): > 100 µM

COc1ccc([N-]/C(=N\n2c(=O)c(C)nn(C)c2=S)N(c2ccc(OC)cc2)c2nn3c(=O)c(C)n[n+](C)c3s2)cc1
TGI (KM20L2 colon): > 100 µM
TGI (HOP-18 NSCLC): > 100 µM
TGI (SNB-78 CNS): > 100 µM
TGI (DLD-1 colon): > 100 µM
TGI (DMS 114 small cell lung): > 100 µM
TGI (LXFL 529 NSCLC): > 100 µM
TGI (DMS 273 small cell lung): > 100 µM

COc1ccc(C2ON(c3ccccn3)CC=C2C)cc1 (stereo not given)
TGI (KM20L2 colon): > 100 µM
TGI (RXF-631 renal): > 100 µM
TGI (HOP-18 NSCLC): > 100 µM
TGI (SNB-78 CNS): > 100 µM
TGI (XF 498 CNS): > 100 µM
TGI (DLD-1 colon): > 100 µM
TGI (DMS 114 small cell lung): > 100 µM
TGI (LXFL 529 NSCLC): > 100 µM
TGI (DMS 273 small cell lung): > 100 µM

CC(C)OP(=O)(OC(C)C)/C(=N/N)NNc1ccc([N+](=O)[O-])cc1
TGI (KM20L2 colon): > 100 µM
TGI (SNB-78 CNS): > 100 µM
TGI (XF 498 CNS): > 100 µM
TGI (DLD-1 colon): > 100 µM
TGI (DMS 114 small cell lung): > 100 µM
TGI (LXFL 529 NSCLC): > 100 µM
TGI (DMS 273 small cell lung): > 100 µM

CC[C@@H](C(=O)[C@@H](C)[C@@H](O)[C@H](C)CCc1ccc(C)c(O)c1C(=O)O)[C@H]1O[C@](CC)([C@H]2CC[C@](O)(CC)[C@H](C)O2)C[C@@H]1C
TGI (KM20L2 colon): 11.6 µM
TGI (RXF-631 renal): 10.7 µM
TGI (HOP-18 NSCLC): 13.1 µM
TGI (SNB-78 CNS): 17.1 µM
TGI (XF 498 CNS): 3.41 µM
TGI (DLD-1 colon): 13.8 µM
TGI (DMS 114 small cell lung): 4.15 µM
TGI (LXFL 529 NSCLC): 4.94 µM
TGI (DMS 273 small cell lung): 8.1 µM

COC(=O)N/N=C/c1oc(-c2ccccc2)c(-c2ccccc2)c1[N+](=O)[O-]
TGI (KM20L2 colon): > 100 µM
TGI (RXF-631 renal): > 100 µM
TGI (SNB-78 CNS): > 100 µM
TGI (XF 498 CNS): > 100 µM
TGI (DLD-1 colon): > 100 µM
TGI (DMS 114 small cell lung): > 100 µM
TGI (LXFL 529 NSCLC): > 100 µM
TGI (DMS 273 small cell lung): > 100 µM

O=C1c2nn(-c3ccccc3)nc2C(c2ccccc2)N1c1ccccc1 (stereo not given)
TGI (KM20L2 colon): > 100 µM
TGI (HOP-18 NSCLC): > 100 µM
TGI (SNB-78 CNS): > 100 µM
TGI (XF 498 CNS): > 100 µM
TGI (DLD-1 colon): > 100 µM
TGI (DMS 114 small cell lung): > 100 µM
TGI (LXFL 529 NSCLC): > 100 µM
TGI (DMS 273 small cell lung): > 100 µM

NC(=S)N1N=C2c3ccccc3CC[C@H]2[C@@H]1c1cccs1
TGI (KM20L2 colon): 62.9 µM
TGI (HOP-18 NSCLC): > 100 µM
TGI (SNB-78 CNS): > 100 µM
TGI (XF 498 CNS): > 100 µM
TGI (DLD-1 colon): > 100 µM
TGI (DMS 114 small cell lung): 61.1 µM
TGI (LXFL 529 NSCLC): > 100 µM
TGI (DMS 273 small cell lung): 36.6 µM

CC12CC[C@H](O)C(C)(C)[C@H]1CC[C@](C)(O)C2COc1ccc2ccc(=O)oc2c1 (stereo not given in full)
TGI (KM20L2 colon): > 100 µM
TGI (HOP-18 NSCLC): > 100 µM
TGI (SNB-78 CNS): > 100 µM
TGI (XF 498 CNS): > 100 µM
TGI (DLD-1 colon): > 100 µM
TGI (DMS 114 small cell lung): > 100 µM
TGI (LXFL 529 NSCLC): > 100 µM
TGI (DMS 273 small cell lung): > 100 µM

CCOc1ccc(N=Nc2ccc3oc(=O)c(C(=O)Nc4ccc(OC)cc4)cc3c2)cc1
TGI (KM20L2 colon): > 100 µM
TGI (SNB-78 CNS): 82.8 µM
TGI (DLD-1 colon): 61.4 µM
TGI (LXFL 529 NSCLC): > 100 µM
TGI (DMS 273 small cell lung): > 100 µM

CC(=O)OC1CC2(c3ccccc3)C(=O)c3ccccc3N2O1 (stereo not given)
TGI (KM20L2 colon): > 100 µM
TGI (HOP-18 NSCLC): > 100 µM
TGI (SNB-78 CNS): > 100 µM
TGI (XF 498 CNS): > 100 µM
TGI (DLD-1 colon): > 100 µM
TGI (DMS 114 small cell lung): > 100 µM
TGI (LXFL 529 NSCLC): > 100 µM
TGI (DMS 273 small cell lung): > 100 µM

O=C1Nc2ccccc2Nc2nc3cccccc-3c21
TGI (KM20L2 colon): > 100 µM
TGI (SNB-78 CNS): > 100 µM
TGI (XF 498 CNS): > 100 µM
TGI (DLD-1 colon): > 100 µM
TGI (DMS 114 small cell lung): > 100 µM
TGI (LXFL 529 NSCLC): > 100 µM
TGI (DMS 273 small cell lung): > 100 µM

CC1(C)C2CCC3(OCCO3)C1C1OC12 (stereo not given)
TGI (KM20L2 colon): > 100 µM
TGI (RXF-631 renal): > 100 µM
TGI (HOP-18 NSCLC): > 100 µM
TGI (SNB-78 CNS): > 100 µM
TGI (XF 498 CNS): > 100 µM
TGI (DMS 273 small cell lung): > 100 µM

O=C(Nc1ccc(Cl)cc1)/C(Cc1cccc[n+]1[O-])=N\Nc1ccc([N+](=O)[O-])cc1[N+](=O)[O-]
TGI (KM20L2 colon): > 100 µM
TGI (RXF-631 renal): > 100 µM
TGI (SNB-78 CNS): > 100 µM
TGI (DLD-1 colon): > 100 µM
TGI (DMS 114 small cell lung): > 100 µM
TGI (LXFL 529 NSCLC): > 100 µM
TGI (DMS 273 small cell lung): > 100 µM

Source: PubChem BioAssay (NCI)
